The target of this assay is N-type calcium channel (α1B (Cav2.2), β3 and α2δ subunits) in stable HEK cell line (Homo sapiens (Human), UniProt Q00975). Nature of the assay: Functional assay (FDSS calcium mobilization): antagonism of N-type calcium channel. The format is cell-based. The conditions noted are these: for IC50: KCl (50 mM) depolarization, six-point concentration-response; for inhibition at 0.33 µM: HEK293; for inhibition at 0.33 µM / % Inhibition (%) at 0.33 μM: FDSS, 0.33 μM compound. The protocol: A stable cell line (HEK parent) co-expressing the α1B (Cav2.2), β3 and α2δ subunits of the N-type calcium channel subunits was used. These cells were routinely grown as monolayers in low glucose-containing Dulbecco's Modified Eagle Medium supplemented with 10% FBS, 2 mM L-glutamine, 100 I.U./mL penicillin, 100 μg/mL streptomycin, 400 μg/mL G418 and 200 μg/mL Zeocin (split ratio=1:5). Cells were maintained in 5% CO2 at 37° C. Compounds of Formula (I) were prepared as 10 mM stocks in DMSO from neat compound, if available. Otherwise, the 5 or 10 mM DMSO stock solutions provided in-house were used.
Sequence of N-type calcium channel (α1B (Cav2.2), β3 and α2δ subunits) in stable HEK cell line (Q00975 whole entry): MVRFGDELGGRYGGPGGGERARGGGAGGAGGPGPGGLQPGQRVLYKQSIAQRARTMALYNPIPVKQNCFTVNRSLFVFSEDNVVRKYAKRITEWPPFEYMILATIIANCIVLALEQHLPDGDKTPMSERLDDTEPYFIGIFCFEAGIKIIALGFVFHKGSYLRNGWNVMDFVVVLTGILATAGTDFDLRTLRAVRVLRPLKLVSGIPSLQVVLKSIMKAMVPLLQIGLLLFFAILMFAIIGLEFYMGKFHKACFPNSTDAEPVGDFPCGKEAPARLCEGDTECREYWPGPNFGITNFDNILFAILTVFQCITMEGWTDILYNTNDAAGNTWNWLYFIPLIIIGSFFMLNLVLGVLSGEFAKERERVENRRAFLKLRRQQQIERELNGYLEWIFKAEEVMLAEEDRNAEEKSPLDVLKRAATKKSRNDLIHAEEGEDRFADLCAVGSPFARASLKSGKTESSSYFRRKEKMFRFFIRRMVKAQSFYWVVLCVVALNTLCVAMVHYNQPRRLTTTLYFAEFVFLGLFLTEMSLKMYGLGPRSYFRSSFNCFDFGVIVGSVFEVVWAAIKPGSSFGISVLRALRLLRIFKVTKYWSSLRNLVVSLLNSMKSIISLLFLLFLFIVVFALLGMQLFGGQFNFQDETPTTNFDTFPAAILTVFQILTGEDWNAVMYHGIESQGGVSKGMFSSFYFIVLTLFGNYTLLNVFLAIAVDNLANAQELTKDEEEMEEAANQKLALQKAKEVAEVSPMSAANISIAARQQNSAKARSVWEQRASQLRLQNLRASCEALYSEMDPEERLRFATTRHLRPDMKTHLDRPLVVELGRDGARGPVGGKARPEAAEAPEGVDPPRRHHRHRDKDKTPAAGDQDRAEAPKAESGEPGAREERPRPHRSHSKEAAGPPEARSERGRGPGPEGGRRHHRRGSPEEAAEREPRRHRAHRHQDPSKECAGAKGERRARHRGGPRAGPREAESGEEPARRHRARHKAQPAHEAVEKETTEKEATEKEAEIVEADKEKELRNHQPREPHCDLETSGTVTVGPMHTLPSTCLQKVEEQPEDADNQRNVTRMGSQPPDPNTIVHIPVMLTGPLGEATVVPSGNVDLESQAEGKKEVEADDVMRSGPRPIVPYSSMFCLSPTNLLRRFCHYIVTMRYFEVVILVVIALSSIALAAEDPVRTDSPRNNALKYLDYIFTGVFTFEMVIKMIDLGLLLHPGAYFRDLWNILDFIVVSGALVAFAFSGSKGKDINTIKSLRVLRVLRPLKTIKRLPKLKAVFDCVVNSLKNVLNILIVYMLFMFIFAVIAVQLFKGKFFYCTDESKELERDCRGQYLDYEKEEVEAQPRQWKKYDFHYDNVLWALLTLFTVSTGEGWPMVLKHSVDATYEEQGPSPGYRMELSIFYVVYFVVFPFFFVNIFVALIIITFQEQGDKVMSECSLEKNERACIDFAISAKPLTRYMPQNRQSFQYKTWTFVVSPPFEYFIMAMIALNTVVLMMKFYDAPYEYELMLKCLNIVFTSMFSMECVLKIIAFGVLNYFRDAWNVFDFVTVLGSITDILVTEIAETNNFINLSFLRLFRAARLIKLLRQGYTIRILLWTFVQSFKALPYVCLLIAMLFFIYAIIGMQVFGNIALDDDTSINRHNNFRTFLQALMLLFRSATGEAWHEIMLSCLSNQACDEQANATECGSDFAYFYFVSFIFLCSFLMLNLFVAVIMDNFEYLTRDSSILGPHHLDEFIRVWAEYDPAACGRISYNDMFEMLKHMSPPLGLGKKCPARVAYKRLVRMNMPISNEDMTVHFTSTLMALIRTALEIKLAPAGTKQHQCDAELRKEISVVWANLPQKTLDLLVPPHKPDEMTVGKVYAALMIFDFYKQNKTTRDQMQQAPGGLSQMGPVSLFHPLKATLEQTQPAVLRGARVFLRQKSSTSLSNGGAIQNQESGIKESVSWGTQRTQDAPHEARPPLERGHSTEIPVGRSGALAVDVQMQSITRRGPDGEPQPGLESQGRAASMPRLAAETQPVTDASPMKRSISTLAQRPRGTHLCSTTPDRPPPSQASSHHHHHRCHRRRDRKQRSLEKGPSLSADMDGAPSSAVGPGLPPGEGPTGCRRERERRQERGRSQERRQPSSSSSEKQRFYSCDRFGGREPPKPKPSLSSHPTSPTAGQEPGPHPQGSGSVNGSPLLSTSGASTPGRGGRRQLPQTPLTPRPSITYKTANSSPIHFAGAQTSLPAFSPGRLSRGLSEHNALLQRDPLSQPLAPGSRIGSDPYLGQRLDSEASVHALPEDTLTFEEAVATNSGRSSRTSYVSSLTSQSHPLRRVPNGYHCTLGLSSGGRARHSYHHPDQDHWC
Sequence of N-type calcium channel (α1B (Cav2.2), β3 and α2δ subunits) in stable HEK cell line (P54284 whole entry partner): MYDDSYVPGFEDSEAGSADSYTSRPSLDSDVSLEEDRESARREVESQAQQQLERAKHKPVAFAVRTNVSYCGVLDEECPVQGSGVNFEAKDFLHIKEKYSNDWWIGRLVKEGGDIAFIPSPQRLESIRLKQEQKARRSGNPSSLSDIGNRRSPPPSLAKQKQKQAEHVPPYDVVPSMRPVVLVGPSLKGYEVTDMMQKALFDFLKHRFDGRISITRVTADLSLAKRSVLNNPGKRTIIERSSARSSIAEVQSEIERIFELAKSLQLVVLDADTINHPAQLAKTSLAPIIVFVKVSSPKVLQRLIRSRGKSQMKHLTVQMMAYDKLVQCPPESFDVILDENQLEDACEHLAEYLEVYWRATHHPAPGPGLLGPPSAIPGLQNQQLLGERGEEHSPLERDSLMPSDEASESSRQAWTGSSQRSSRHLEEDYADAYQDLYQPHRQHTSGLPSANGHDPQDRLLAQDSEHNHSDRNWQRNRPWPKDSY
Sequence of N-type calcium channel (α1B (Cav2.2), β3 and α2δ subunits) in stable HEK cell line (P54289 25-1103 partner): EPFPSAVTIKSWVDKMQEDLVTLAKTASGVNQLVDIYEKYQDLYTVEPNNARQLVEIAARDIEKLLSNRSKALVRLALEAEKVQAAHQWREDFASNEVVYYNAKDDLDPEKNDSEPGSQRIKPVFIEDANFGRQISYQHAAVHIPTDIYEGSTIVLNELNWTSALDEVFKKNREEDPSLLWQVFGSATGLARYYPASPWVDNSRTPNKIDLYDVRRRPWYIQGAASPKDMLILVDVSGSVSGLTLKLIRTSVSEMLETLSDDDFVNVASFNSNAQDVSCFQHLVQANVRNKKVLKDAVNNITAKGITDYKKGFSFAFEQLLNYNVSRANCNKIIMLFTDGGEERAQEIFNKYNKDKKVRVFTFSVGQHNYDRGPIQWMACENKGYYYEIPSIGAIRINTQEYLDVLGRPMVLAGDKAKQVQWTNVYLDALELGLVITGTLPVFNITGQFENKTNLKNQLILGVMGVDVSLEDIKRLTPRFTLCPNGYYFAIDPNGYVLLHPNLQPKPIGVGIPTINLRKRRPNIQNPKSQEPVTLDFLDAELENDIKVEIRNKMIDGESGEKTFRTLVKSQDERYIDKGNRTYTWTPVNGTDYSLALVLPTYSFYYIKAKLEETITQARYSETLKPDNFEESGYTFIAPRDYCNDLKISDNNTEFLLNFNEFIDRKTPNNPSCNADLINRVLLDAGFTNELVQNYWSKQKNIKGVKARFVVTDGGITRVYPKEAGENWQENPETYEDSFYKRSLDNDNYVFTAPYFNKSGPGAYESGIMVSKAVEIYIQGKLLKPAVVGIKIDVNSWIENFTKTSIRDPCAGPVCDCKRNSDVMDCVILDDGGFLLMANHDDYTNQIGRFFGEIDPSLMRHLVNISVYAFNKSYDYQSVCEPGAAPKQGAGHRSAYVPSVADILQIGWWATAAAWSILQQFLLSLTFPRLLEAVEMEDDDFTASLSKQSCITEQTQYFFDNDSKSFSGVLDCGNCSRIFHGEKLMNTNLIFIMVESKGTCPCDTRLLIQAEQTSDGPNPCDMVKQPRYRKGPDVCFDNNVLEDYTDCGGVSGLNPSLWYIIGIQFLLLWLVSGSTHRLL
Calcium mobilization responses to KCl depolarization were evaluated by measuring the intensity of calcium-mediated fluorescent signal in the presence of BD Calcium Assay Dye (BD Biosciences, Franklin Lakes, N.J., U.S.A.), utilizing a Functional Drug Screening System (FDSS) by Hamamatsu Corporation (Bridgewater, N.J. U.S.A.).
Twenty-four hr prior to assay, cells were seeded in clear-base poly-D-lysine-coated 384-well plates (BD Biosciences) at a density of 5,000 cells per well in culture medium and grown overnight in 5% CO2 at 37° C. On the day of assay, growth media were removed, and cells were loaded with BD calcium assay dye (BD Biosciences) for 35 min at 37° C. under 5% CO2 and then for 25 min at room temp. Utilizing the FDSS, cells were exposed to representative compounds of Formula (I) at varying concentrations, and intracellular calcium was measured for 5 min prior to the addition of 50 mM KCl for an additional 3 min of measurement.
IC50 values for representative compounds of Formula (I) were determined from six-point concentration-response experiments and represent the concentration of said compound required to inhibit 50% of the maximal response. Maximal fluorescence intensity (FI) achieved upon addition of 50 mM KCl was exported from the FDSS software and further analyzed using GraphPad Prism 3.02 (Graph Pad Software Inc., San Diego, Calif., U.S.A.). Data were normalized to the maximum average counts from quadruplicate wells for each condition in the presence of 50 mM KCl and to the minimum average counts in the presence of buffer. Theoretical curves were generated using nonlinear regression curve-fitting analysis of either sigmoidal concentration-response or sigmoidal concentration-response (variable slope), and the IC50 values with the best-fit curve determined by GraphPad Prism were reported.

Structures can show the parent of a compound that is named as a salt.

What is called IC50 is the concentration needed to halve the response being measured. For orientation: inhibition means the percentage by which the read-out fell short of the control.

Regarding `COc1ccccc1-n1nc(OC2CCN(C(=O)OC(C)(C)C)CC2)cc1-c1ccc(Cl)cc1` [Compound 1, tert-Butyl 4-{[5-(4-chlorophenyl)-1-(2-methoxyphenyl)-1H-pyrazol-3-yl]oxy}piperidine-1-carboxylate], the IC50 was determined as 30 nM.
Same read-out and setting: the result for `COc1ccccc1-n1nc(OC2CCC(=O)CC2)cc1-c1ccc(Cl)cc1` [Compound 2, 4-{[5-(4-Chlorophenyl)-1-(2-methoxyphenyl)-1H-pyrazol-3-yl]oxy}cyclohexanone] reads 28 nM.
With `COc1ccccc1-n1nc(OC2CCN(C(C)=O)CC2)cc1-c1ccc(Cl)cc1` [Compound 3, 1-Acetyl-4-{[5-(4-chlorophenyl)-1-(2-methoxyphenyl)-1H-pyrazol-3-yl]oxy}piperidine], the IC50 was determined as 26 nM.
As to `COc1ccccc1-n1nc(OC2CCN(C(=O)N(C)C)CC2)cc1-c1ccc(Cl)cc1` [Compound 4, 4-{[5-(4-Chlorophenyl)-1-(2-methoxyphenyl)-1H-pyrazol-3-yl]oxy}-N,N-dimethylpiperidine-1-carboxamide], the IC50 amounted to 14 nM.
On to `COc1ccccc1-n1nc(OC2CCN(S(C)(=O)=O)CC2)cc1-c1ccc(Cl)cc1` [Compound 5, 4-{[5-(4-Chlorophenyl)-1-(2-methoxyphenyl)-1H-pyrazol-3-yl]oxy}-1-(methylsulfonyl)piperidine], for which the half-inhibitory concentration (IC50) is 15 nM.
As for `COc1ccccc1-n1nc(OC2CCOCC2)cc1-c1ccc(Cl)cc1` [Compound 6, 5-(4-Chlorophenyl)-1-(2-methoxyphenyl)-3-(tetrahydro-2H-pyran-4-yloxy)-1H-pyrazole], the inhibition at 0.33 µM came to 98% and the IC50 worked out at 15 nM.
`COc1ccccc1-n1nc(OC2CCSCC2)cc1-c1ccc(Cl)cc1` [Compound 7, 5-(4-Chlorophenyl)-1-(2-methoxyphenyl)-3-(tetrahydro-2H-thiopyran-4-yloxy)-1H-pyrazole]: the IC50 was 28 nM.
Still for that read-out and setting: the result for `COc1ccccc1-n1nc(OC2CCN(CC(F)(F)F)CC2)cc1-c1ccc(Cl)cc1` [Compound 8, 4-{[5-(4-Chlorophenyl)-1-(2-methoxyphenyl)-1H-pyrazol-3-yl]oxy}-1-(2,2,2-trifluoroethyl)piperidine] reads 31 nM; that for `COc1ccccc1-n1nc(OC2CCN(C(=O)C(F)(F)F)CC2)cc1-c1ccc(Cl)cc1` [Compound 9, 4-{[5-(4-Chlorophenyl)-1-(2-methoxyphenyl)-1H-pyrazol-3-yl]oxy}-1-(trifluoroacetyl)piperidine], 31.4 nM.
Take `COc1ccccc1-n1nc(OC2CCS(=O)(=O)CC2)cc1-c1ccc(Cl)cc1` [Compound 10, 5-(4-Chlorophenyl)-3-[(1,1-dioxidotetrahydro-2H-thiopyran-4-yl)oxy]-1-(2-methoxyphenyl)-1H-pyrazole]: the IC50 turned out to be 30 nM.
Regarding `COc1ccccc1-n1nc(O[C@H]2CC[C@@H](NC(=O)OC(C)(C)C)CC2)cc1-c1ccc(Cl)cc1` [Compound 11, tert-Butyl (cis-4-{[5-(4-chlorophenyl)-1-(2-methoxyphenyl)-1H-pyrazol-3-yl]oxy}cyclohexyl)carbamate], the IC50 turned out to be 62 nM.
`COc1ccccc1-n1nc(O[C@H]2CC[C@@H](N)CC2)cc1-c1ccc(Cl)cc1` [Compound 12, cis-4-{[5-(4-Chlorophenyl)-1-(2-methoxyphenyl)-1H-pyrazol-3-yl]oxy}cyclohexanamine trifluoroacetate]: the IC50 is 400 nM.
Take `COc1ccccc1-n1nc(O[C@H]2CC[C@@H](NC(=O)C(F)(F)F)CC2)cc1-c1ccc(Cl)cc1` [Compound 13, N-(cis-4-{[5-(4-Chlorophenyl)-1-(2-methoxyphenyl)-1H-pyrazol-3-yl]oxy}cyclohexyl)-2,2,2-trifluoroacetamide]: the IC50 came to 11 nM.
On the same count and under the same terms, then `COc1ccccc1-n1nc(OC2CCN(S(=O)(=O)C(F)(F)F)CC2)cc1-c1ccc(Cl)cc1` [Compound 14, 4-{[5-(4-Chlorophenyl)-1-(2-methoxyphenyl)-1H-pyrazol-3-yl]oxy}-1-[(trifluoromethyl)sulfonyl]piperidine], with 24 nM.
As to `COc1ccccc1-n1nc(OC2CCC(F)(F)CC2)cc1-c1ccc(Cl)cc1` [Compound 16, 5-(4-Chlorophenyl)-3-[(4,4-difluorocyclohexyl)oxy]-1-(2-methoxyphenyl)-1H-pyrazole], the concentration for half-maximal inhibition (IC50) came to 41 nM.
Take `CCc1ccccc1-n1nc(OC2CCC3(CC2)OCCO3)cc1-c1ccc(Cl)cc1` [Compound 17, 5-(4-Chlorophenyl)-3-(1,4-dioxaspiro[4.5]dec-8-yloxy)-1-(2-ethylphenyl)-1H-pyrazole]: the IC50 stood at 81 nM.
As for `CCc1ccccc1-n1nc(OC2CCN(C(=O)OC(C)(C)C)CC2)cc1-c1ccc(Cl)cc1` [Compound 18, tert-Butyl 4-{[5-(4-chlorophenyl)-1-(2-ethylphenyl)-1H-pyrazol-3-yl]oxy}piperidine-1-carboxylate], the IC50 is 50 nM.
Consider `CCc1ccccc1-n1nc(OC2CCN(S(C)(=O)=O)CC2)cc1-c1ccc(Cl)cc1` [Compound 19, 4-{[5-(4-Chlorophenyl)-1-(2-ethylphenyl)-1H-pyrazol-3-yl]oxy}-1-(methylsulfonyl)piperidine], for which the IC50 was found to be 98.5 nM.
As for `COc1ccccc1-n1nc(OC2CN(C(=O)OC(C)(C)C)C2)cc1-c1ccc(Cl)cc1` [Compound 22, tert-Butyl 3-{[5-(4-chlorophenyl)-1-(2-methoxyphenyl)-1H-pyrazol-3-yl]oxy}azetidine-1-carboxylate], the inhibition at 0.33 µM was found to be 90% and the IC50 was 67 nM.
Consider `CC(C)(C)Oc1ccccc1-n1nc(OC2CCN(S(C)(=O)=O)CC2)cc1-c1ccc(Cl)cc1` [Compound 24, 4-{[1-(2-tert-Butoxyphenyl)-5-(4-chlorophenyl)-1H-pyrazol-3-yl]oxy}-1-(methylsulfonyl)piperidine], for which the inhibition at 0.33 µM is 57%.
Regarding `COc1ccccc1-n1nc(OC2CN(S(=O)(=O)C(C)C)C2)cc1-c1ccc(Cl)cc1` [Compound 25, 5-(4-Chlorophenyl)-1-(2-methoxyphenyl)-3-({1-[(1-methylethyl)sulfonyl]azetidin-3-yl}oxy)-1H-pyrazole], the inhibition at 0.33 µM stood at 92% and the IC50 turned out to be 36 nM.
Turning to `COc1ccccc1-n1nc(OC2CN(C(=O)c3ccccc3)C2)cc1-c1ccc(Cl)cc1` [Compound 27, 5-(4-Chlorophenyl)-1-(2-methoxyphenyl)-3-{[1-(phenylcarbonyl)azetidin-3-yl]oxy}-1H-pyrazole], the inhibition at 0.33 µM was 87% and the concentration for half-maximal inhibition (IC50) was found to be 85 nM.
Consider `CC(C)Oc1ccccc1-n1nc(OC2CCN(S(=O)(=O)C(C)C)CC2)cc1-c1ccc(Cl)cc1` [Compound 28, 4-({5-(4-Chlorophenyl)-1-[2-(1-methylethoxy)phenyl]-1H-pyrazol-3-yl}oxy)-1-[(1-methylethyl)sulfonyl]piperidine], for which the inhibition at 0.33 µM stood at 96% and the IC50 was 7 nM.
In the case of `COc1ccc(-c2cc(OC3CC(C)(C)SC(C)(C)C3)nn2-c2ccccc2OC)cc1` [Compound 32, 1-(2-Methoxyphenyl)-5-(4-methoxyphenyl)-3-[(2,2,6,6-tetramethyltetrahydro-2H-thiopyran-4-yl)oxy]-1H-pyrazole], the inhibition at 0.33 µM was 93% and the IC50 stood at 6 nM.
The corresponding values for `COc1ccc(-c2cc(OC3CC(C)(C)S(=O)(=O)C(C)(C)C3)nn2-c2ccccc2OC)cc1` [Compound 33, 1-(2-Methoxyphenyl)-5-(4-methoxyphenyl)-3-[(2,2,6,6-tetramethyl-1,1-dioxidotetrahydro-2H-thiopyran-4-yl)oxy]-1H-pyrazole] are 94% and 3 nM.
On to `COc1ccc(-c2cc(O[C@H]3CC(C)(C)[S@+]([O-])C(C)(C)C3)nn2-c2ccccc2OC)cc1` [Compound 34, (1r,4r)-4-((1-(2-methoxyphenyl)-5-(4-methoxyphenyl)-1H-pyrazol-3-yl)oxy)-2,2,6,6-tetramethyltetrahydro-2H-thiopyran 1-oxide], for which the “% Inhibition (%) at 0.33 μM” value was determined as 94% and the IC50 came to 4.5 nM.
In the case of `COc1ccc(-c2cc(O[C@H]3CC(C)(C)[S@@+]([O-])C(C)(C)C3)nn2-c2ccccc2OC)cc1` [Compound 35, (1s,4s)-4-((1-(2-methoxyphenyl)-5-(4-methoxyphenyl)-1H-pyrazol-3-yl)oxy)-2,2,6,6-tetramethyltetrahydro-2H-thiopyran 1-oxide], the “% Inhibition (%) at 0.33 μM” value is listed as 91% and the IC50 was 7.6 nM.
